Results on 22 compounds are retold here after patent EP4043466B1, “PRC2 INHIBITORS” (Mirati Therapeutics, Inc., priority 2018, dated 2019).

Assay [1] addresses purified human, His-tagged PRC2 complex (Homo sapiens, UniProt O75530+Q15910). In words: Hot Spot HMT assay: inhibition of PRC2 enzymatic activity (transfer of tritiated methyl from SAM to core histone, filter binding). It is filed as biochemical. Conditions: Inhibition of PRC2-mediated enzymatic activity; 10 nM PRC2 complex, 0.05 mg/ml core histone H3, 1 uM 3H-SAM, 1 hr at 30°C. In short, it runs like this:
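Serial compound dilutions starting at 1.0 µM were pre-incubated 20 min at 30°C with 10 nM complex (His-EZH2, Flag-EED, His-SUZ12, His-AEBP2, His-RbAp48) and 0.05 mg/ml core H3. Reaction ran 1 hr at 30°C after adding 1 uM [3H]-SAM; scintillation counting followed filtration.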

The test system of a further assay is Karpas 422 cells. In words: Karpas 422 cell viability, CTG (Cell Titre Glo) assay. It is filed as cell-based, human. Conditions: Homo sapiens; Inhibition of proliferation of Karpas 422 cells (EZH2 Y641N); viability measured Day 4, Day 7 or Day 11, time point of the tabulated values not stated. The method, then: Karpas 422 cell line is a human B cell non-Hodgkin's lymphoma cell line established from a patient having DLBCL. This EZH2 heterozygotic cell line expresses a mutant form of EZH2 enzyme (Y641N) that increases histone H3 methylation and this mutation has been implicated in the tumorgenesis of lymphomas, such as DLBCL.
Karpas 422 cells (PHE cat no., 06101702) were cultured in RPMI medium supplemented with 20% fetal bovine serum and 1% penicillin/1% streptomycin and plated at a density of 1000 cells/90 µl/well in 96 well white assay plates. A dose response curve for compounds of the present invention was determined by adding a 10µl aliquot of stock solutions of varying concentrations of compounds to the same medium in each well, over a concentration range of 10µM using 3-fold dilutions to a final concentration of 1.5nM. The plates were incubated at 37° C for predetermined time periods, Day 4, Day 7, or Day 11, and the viability of the cells was measured using a CTG assay kit (Cell Titre Glo; Promega cat.no G7573) on Day 4 and Day 7 in accordance with the manufacturer's instructions.
For the viability assay for the Day 11 plates, the plates were subjected to centrifugation at 1100 rpm for five minutes on Day 7 and the supernatant was removed by aspiration. The cells were resuspended in 90 µl aliquot of the appropriate growth medium lacking the compound followed by addition of 10 µl of a 10X stock of the same compound at the same concentration. The viability of the Day 11 cells was measured using the CTG assay kit described above in accordance with the manufacturer's instructions. The IC50 values for each compound at each predetermined time point were calculated using Graph pad PRISM software and the results are shown in Table 15. A = ≤250 nM; B = […] - ≤500 nM; and C = >500 nM.

Sequence of purified human, His-tagged PRC2 complex (Q15910 whole entry): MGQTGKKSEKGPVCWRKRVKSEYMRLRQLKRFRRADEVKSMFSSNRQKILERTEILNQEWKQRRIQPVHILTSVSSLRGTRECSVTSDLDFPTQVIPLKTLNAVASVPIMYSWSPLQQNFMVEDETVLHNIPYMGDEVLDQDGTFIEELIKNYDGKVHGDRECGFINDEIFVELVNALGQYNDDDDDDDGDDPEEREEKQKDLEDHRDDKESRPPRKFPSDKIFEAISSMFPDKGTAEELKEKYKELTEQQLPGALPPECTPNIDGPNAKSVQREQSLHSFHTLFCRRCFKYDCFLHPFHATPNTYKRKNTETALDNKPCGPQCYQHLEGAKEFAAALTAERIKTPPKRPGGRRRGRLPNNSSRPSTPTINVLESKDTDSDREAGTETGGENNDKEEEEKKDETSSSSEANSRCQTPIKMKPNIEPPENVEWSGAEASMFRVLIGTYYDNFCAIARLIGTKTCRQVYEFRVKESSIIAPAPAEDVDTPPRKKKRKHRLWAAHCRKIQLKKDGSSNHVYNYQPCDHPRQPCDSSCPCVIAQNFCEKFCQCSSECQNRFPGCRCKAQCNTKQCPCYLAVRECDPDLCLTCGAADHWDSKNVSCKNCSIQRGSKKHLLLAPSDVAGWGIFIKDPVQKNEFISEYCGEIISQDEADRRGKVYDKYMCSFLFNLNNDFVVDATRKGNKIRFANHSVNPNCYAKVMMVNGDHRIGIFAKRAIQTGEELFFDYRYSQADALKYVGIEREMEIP
Sequence of purified human, His-tagged PRC2 complex (O75530 whole entry): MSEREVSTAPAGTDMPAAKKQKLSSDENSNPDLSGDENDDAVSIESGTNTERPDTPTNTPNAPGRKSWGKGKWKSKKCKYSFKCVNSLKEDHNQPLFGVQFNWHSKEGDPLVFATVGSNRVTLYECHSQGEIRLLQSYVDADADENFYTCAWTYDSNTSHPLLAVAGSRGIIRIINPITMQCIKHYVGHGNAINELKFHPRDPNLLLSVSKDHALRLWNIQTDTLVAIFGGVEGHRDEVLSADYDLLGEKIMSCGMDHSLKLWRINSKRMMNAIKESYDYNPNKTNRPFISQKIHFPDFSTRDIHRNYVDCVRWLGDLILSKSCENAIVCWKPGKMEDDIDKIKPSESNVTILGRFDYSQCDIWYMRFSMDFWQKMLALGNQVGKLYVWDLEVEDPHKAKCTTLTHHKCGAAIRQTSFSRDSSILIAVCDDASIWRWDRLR
Sequence of purified human, His-tagged PRC2 complex (Q15022 whole entry partner): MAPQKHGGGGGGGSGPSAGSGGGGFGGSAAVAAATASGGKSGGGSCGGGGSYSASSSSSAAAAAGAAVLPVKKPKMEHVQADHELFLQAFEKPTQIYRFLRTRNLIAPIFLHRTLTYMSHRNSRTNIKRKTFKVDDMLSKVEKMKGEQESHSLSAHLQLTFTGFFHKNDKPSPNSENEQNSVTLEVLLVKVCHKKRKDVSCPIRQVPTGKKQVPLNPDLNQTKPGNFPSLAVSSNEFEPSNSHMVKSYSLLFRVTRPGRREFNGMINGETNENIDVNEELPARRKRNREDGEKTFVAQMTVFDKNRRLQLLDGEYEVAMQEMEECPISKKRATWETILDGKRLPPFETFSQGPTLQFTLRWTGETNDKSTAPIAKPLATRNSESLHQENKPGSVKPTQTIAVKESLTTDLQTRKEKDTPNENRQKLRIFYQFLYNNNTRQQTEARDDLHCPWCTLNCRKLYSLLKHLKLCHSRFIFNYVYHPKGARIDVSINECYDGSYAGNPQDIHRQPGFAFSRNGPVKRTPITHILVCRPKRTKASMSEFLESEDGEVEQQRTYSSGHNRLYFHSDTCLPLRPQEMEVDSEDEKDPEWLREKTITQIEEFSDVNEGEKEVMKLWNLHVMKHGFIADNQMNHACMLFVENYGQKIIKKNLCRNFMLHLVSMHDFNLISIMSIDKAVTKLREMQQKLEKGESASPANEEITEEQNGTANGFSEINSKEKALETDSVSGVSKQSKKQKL
Sequence of purified human, His-tagged PRC2 complex (Q6ZN18 whole entry partner): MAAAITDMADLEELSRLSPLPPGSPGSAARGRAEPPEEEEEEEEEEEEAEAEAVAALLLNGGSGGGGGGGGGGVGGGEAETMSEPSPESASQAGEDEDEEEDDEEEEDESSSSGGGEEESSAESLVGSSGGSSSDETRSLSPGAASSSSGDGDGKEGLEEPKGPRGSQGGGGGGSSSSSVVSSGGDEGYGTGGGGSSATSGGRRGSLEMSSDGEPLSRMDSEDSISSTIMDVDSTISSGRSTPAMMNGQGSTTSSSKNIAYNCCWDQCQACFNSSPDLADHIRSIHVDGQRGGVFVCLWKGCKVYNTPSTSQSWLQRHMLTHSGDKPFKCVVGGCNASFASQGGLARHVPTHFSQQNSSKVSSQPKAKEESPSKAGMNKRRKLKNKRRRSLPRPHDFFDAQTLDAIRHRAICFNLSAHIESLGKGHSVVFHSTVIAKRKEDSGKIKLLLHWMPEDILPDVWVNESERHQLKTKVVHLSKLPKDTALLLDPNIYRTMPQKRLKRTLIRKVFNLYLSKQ
Sequence of purified human, His-tagged PRC2 complex (Q09028 whole entry partner): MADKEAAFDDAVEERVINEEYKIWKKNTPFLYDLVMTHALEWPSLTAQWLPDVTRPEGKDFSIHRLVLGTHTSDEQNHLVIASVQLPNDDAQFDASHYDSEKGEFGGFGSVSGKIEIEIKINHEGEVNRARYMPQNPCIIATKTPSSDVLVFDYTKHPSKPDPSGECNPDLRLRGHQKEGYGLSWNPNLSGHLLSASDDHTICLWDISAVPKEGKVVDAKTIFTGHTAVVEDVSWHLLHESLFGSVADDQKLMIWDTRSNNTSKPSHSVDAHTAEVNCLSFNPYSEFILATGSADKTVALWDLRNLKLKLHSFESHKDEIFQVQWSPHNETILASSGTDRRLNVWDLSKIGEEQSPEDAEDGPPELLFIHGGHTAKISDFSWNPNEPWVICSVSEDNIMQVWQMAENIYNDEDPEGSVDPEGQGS

What is called IC50 is the midpoint of a concentration-inhibition curve. With `CC(C)(O)Cn1cc(-c2cnc(NCc3c(F)ccc4c3CCO4)n3cc(C#N)nc23)cn1` [Example 121, 5-(((5-fluoro-2,3-dihydrobenzofuran-4-yl)methyl)amino)-8-(1-(2-hydroxy-2-methylpropyl)-1H-pyrazol-4-yl)imidazo[1,2-c]pyrimidine-2-carbonitrile], the IC50 in assay [1] is less than 100 nM; in the assay with Karpas 422 cells, 250 to 500 nM.

Regarding `CN(C)Cc1c(F)cc(-c2cnc(NCc3c(F)ccc4c3CCO4)n3cc(C#N)nc23)cc1F` [Example 149, 8-(4-((dimethylamino)methyl)-3,5-difluorophenyl)-5-(((5-fluoro-2,3-dihydrobenzofuran-4-yl)methyl)amino)imidazo[1,2-c]pyrimidine-2-carbonitrile], the values for the IC50 (in assay [1]; in the assay with Karpas 422 cells) were 100 to 500 nM and no more than 250 nM, respectively.

`CN(C)Cc1ccc(-c2cnc(NCc3c(F)ccc4c3CCO4)n3cc(C#N)nc23)c(Cl)c1` [Example 33, 8-(2-chloro-4-((dimethylamino)methyl)phenyl)-5-(((5-fluoro-2,3-dihydrobenzofuran-4-yl)methyl)amino)imidazo[1,2-c]pyrimidine-2-carbonitrile]: the half-maximal inhibitory concentration (IC50) in assay [1] is less than 100 nM; in the assay with Karpas 422 cells it was no more than 250 nM.

Take `N#Cc1cn2c(NCc3c(F)ccc4c3CCO4)ncc(-c3cnn(CC(F)(F)F)c3)c2n1` [Example 108, 5-(((5-fluoro-2,3-dihydrobenzofuran-4-yl)methyl)amino)-8-(1-(2,2,2-trifluoroethyl)-1H-pyrazol-4-yl)imidazo[1,2-c]pyrimidine-2-carbonitrile]: the IC50 in assay [1] is less than 100 nM; in the assay on Karpas 422 cells, no more than 250 nM.

For the compound `COc1ncc(-c2cnc(NCc3c(F)ccc4c3CCO4)n3cc(C#N)nc23)cc1C#N` [Example 130, 8-(5-cyano-6-methoxypyridin-3-yl)-5-(((5-fluoro-2,3-dihydrobenzofuran-4-yl)methyl)amino)imidazo[1,2-c]pyrimidine-2-carbonitrile], the concentration for half-maximal inhibition (IC50) is 100 to 500 nM in assay [1] and greater than 500 nM in the assay with Karpas 422 cells.

Turning to `COc1cc(-c2cnc(NCc3c(F)ccc4c3CCO4)n3cc(C#N)nc23)ccn1` [Example 113, 5-(((5-fluoro-2,3-dihydrobenzofuran-4-yl)methyl)amino)-8-(2-methoxypyridin-4-yl)imidazo[1,2-c]pyrimidine-2-carbonitrile], the IC50 in assay [1] is less than 100 nM; in the assay on Karpas 422 cells it was greater than 500 nM.

For the compound `Cc1cc(-c2cnc(NCc3cccc4c3CCO4)n3cc(C(N)=O)nc23)n(C)n1` [Example 19, 5-(((2,3-dihydrobenzofuran-4-yl)methyl)amino)-8-(1,3-dimethyl-1H-pyrazol-5-yl)imidazo[1,2-c]pyrimidine-2-carboxamide], the 50% inhibitory concentration (IC50) in assay [1] was less than 100 nM; in the assay on Karpas 422 cells, 250 to 500 nM.

Turning to `Cc1nc(C2CC2)ncc1-c1cnc(NCc2c(F)ccc3c2CCO3)n2cc(C#N)nc12` [Example 25, 8-(2-cyclopropyl-4-methylpyrimidin-5-yl)-5-(((5-fluoro-2,3-dihydrobenzofuran-4-yl)methyl)amino)imidazo[1,2-c]pyrimidine-2-carbonitrile], the 50% inhibitory concentration (IC50) in assay [1] was in the range of 100 to 500 nM; with Karpas 422 cells, 250 to 500 nM.

Consider `N#Cc1cn2c(NCc3c(F)ccc4c3CCO4)ncc(-c3ccc(C4CC4)nc3)c2n1` [Example 116, 8-(6-cyclopropylpyridin-3-yl)-5-(((5-fluoro-2,3-dihydrobenzofuran-4-yl)methyl)amino)imidazo[1,2-c]pyrimidine-2-carbonitrile], for which the results for the IC50 (in assay [1]; in the assay with Karpas 422 cells) were less than 100 nM and no more than 250 nM, respectively.

Consider `Cc1nn(C(C)C)cc1-c1cnc(NCc2c(F)ccc3c2CCO3)n2cc(C(N)=O)nc12` [Example 13, 5-(((5-fluoro-2,3-dihydrobenzofuran-4-yl)methyl)amino)-8-(1-isopropyl-3-methyl-1H-pyrazol-4-yl)imidazo[1,2-c]pyrimidine-2-carboxamide], for which the IC50 is less than 100 nM in assay [1] and 250 to 500 nM with Karpas 422 cells.

As for `COc1ncc(-c2cnc(NCc3c(F)ccc4c3CCO4)n3cc(C#N)nc23)c(C)n1` [Example 88, 5-(((5-fluoro-2,3-dihydrobenzofuran-4-yl)methyl)amino)-8-(2-methoxy-4-methylpyrimidin-5-yl)imidazo[1,2-c]pyrimidine-2-carbonitrile], the IC50 in assay [1] is less than 100 nM; in the assay on Karpas 422 cells it was no more than 250 nM.

With `CN(C)C(=O)c1c(F)cc(-c2cnc(NCc3c(F)ccc4c3CCO4)n3cc(C#N)nc23)cc1F` [Example 45, 4-(2-cyano-5-(((5-fluoro-2,3-dihydrobenzofuran-4-yl)methyl)amino)imidazo[1,2-c]pyrimidin-8-yl)-2,6-difluoro-N,N-dimethylbenzamide], the IC50 in assay [1] was less than 100 nM; in the assay with Karpas 422 cells, no more than 250 nM.

As to `Cc1ncccc1-c1cnc(NCc2c(F)ccc3occc23)n2cc(C(N)=O)nc12` [Example 12, 5-(((5-fluorobenzofuran-4-yl)methyl)amino)-8-(2-methylpyridin-3-yl)imidazo[1,2-c]pyrimidine-2-carboxamide], the IC50 in assay [1] is less than 100 nM; in the assay on Karpas 422 cells, greater than 500 nM.

Consider `Cc1ncncc1-c1cnc(NCc2c(F)ccc3c2CCO3)n2cc(C#N)nc12` [Example 110, 5-(((5-fluoro-2,3-dihydrobenzofuran-4-yl)methyl)amino)-8-(4-methylpyrimidin-5-yl)imidazo[1,2-c]pyrimidine-2-carbonitrile], for which the IC50 was less than 100 nM in assay [1] and no more than 250 nM with Karpas 422 cells.

Take `Cc1cc(-c2cnc(NCc3c(F)ccc4c3CCO4)n3cc(C(=O)N(C)C)nc23)n(C)n1` [Example 21, 8-(1,3-dimethyl-1H-pyrazol-5-yl)-5-(((5-fluoro-2,3-dihydrobenzofuran-4-yl)methyl)amino)-N,N-dimethylimidazo[1,2-c]pyrimidine-2-carboxamide]: the IC50 was greater than 500 nM in assay [1] and no more than 250 nM in the assay with Karpas 422 cells.

Turning to `N#Cc1ccc(-c2cnc(NCc3c(F)ccc4c3CCO4)n3cc(C#N)nc23)cn1` [Example 128, 8-(6-cyanopyridin-3-yl)-5-(((5-fluoro-2,3-dihydrobenzofuran-4-yl)methyl)amino)imidazo[1,2-c]pyrimidine-2-carbonitrile], the values for the half-inhibitory concentration (IC50) (in assay [1]; in the assay with Karpas 422 cells) were less than 100 nM and greater than 500 nM, respectively.

Regarding `CCOc1ncccc1-c1cnc(NCc2c(F)ccc3c2CCO3)n2cc(C#N)nc12` [Example 124, 8-(2-ethoxypyridin-3-yl)-5-(((5-fluoro-2,3-dihydrobenzofuran-4-yl)methyl)amino)imidazo[1,2-c]pyrimidine-2-carbonitrile], the IC50 in assay [1] is less than 100 nM; in the assay with Karpas 422 cells it was greater than 500 nM.

With `Cc1ccncc1-c1cnc(NCc2c(F)ccc3c2CCO3)n2cc(C#N)nc12` [Example 98, 5-(((5-fluoro-2,3-dihydrobenzofuran-4-yl)methyl)amino)-8-(4-methylpyridin-3-yl)imidazo[1,2-c]pyrimidine-2-carbonitrile], the IC50 in assay [1] was less than 100 nM; in the assay on Karpas 422 cells it was no more than 250 nM.

As for `Cc1nc(OC(C)C)ncc1-c1cnc(NCc2c(F)ccc3c2CCO3)n2cc(C#N)nc12` [Example 89, 5-(((5-fluoro-2,3-dihydrobenzofuran-4-yl)methyl)amino)-8-(2-isopropoxy-4-methylpyrimidin-5-yl)imidazo[1,2-c]pyrimidine-2-carbonitrile], the IC50 in assay [1] was less than 100 nM; with Karpas 422 cells it was no more than 250 nM.

On to `Cc1cc(C(=O)N(C)C)ccc1-c1cnc(NCc2c(F)ccc3c2CCO3)n2cc(C#N)nc12` [Example 44, 4-(2-cyano-5-(((5-fluoro-2,3-dihydrobenzofuran-4-yl)methyl)amlno)lmldazo[1,2-c]pyrlmldln-8-yl)-N,N,3-trimethylbenzamide], for which the IC50 is less than 100 nM in assay [1] and no more than 250 nM in the assay on Karpas 422 cells.

Regarding `N#Cc1cn2c(NCc3c(F)ccc4c3CCO4)ncc(-c3cccnc3C(F)F)c2n1` [Example 64, 8-(2-(difluoromethyl)pyridin-3-yl)-5-(((5-fluoro-2,3-dihydrobenzofuran-4-yl)methyl)amino)imidazo[1,2-c]pyrimidine-2-carbonitrile], the values for the IC50 (in assay [1]; with Karpas 422 cells) were less than 100 nM and 250 to 500 nM, respectively.

As for `N#Cc1cn2c(NCc3c(F)ccc4c3CCO4)ncc(-c3cnn(C4COC4)c3)c2n1` [Example 106, 5-(((5-fluoro-2,3-dihydrobenzofuran-4-yl)methyl)amino)-8-(1-(oxetan-3-yl)-1H-pyrazol-4-yl)imidazo[1,2-c]pyrimidine-2-carbonitrile], the IC50 in assay [1] is 100 to 500 nM; with Karpas 422 cells, greater than 500 nM.
